This is an account of results in ChEMBL document CHEMBL5543121, “Drug Repurposing of ACT001 to Discover Novel Promising Sulfide Prodrugs with Improved Safety and Potent Activity for Neutrophil-Mediated Antifungal Immunotherapy” (J Med Chem, 2024).

Activity calls are given as the source filed them. The rule behind the calls is not given here.

The test system of data set [1] is Polymorphonuclear neutrophil. Kind of data set: Inhibition of fungal curdlan induced PD-L1 protein expression in mouse polymorphonuclear neutrophils at 20 uM incubated for 16 hrs by ELISA. Format: functional, cell-based.
Data set [2] is described as follows: Cytotoxicity against mouse polymorphonuclear neutrophils assessed as cell viability at 20 uM incubated for 16 hrs. Format: toxicity, cell-based. The following applies: polymorphonuclear neutrophil.
Data set [3] concerns the target Signal transducer and activator of transcription 3 (Homo sapiens, UniProt P40763). Kind of data set: Binding affinity to Cys542 residue of human recombinant STAT3 assessed as covalent modification by measuring mass shift by LC-MS/MS analysis.
Data set [4] is described as follows: Inhibition of fungal curdlan induced PD-L1 expression in mouse neutrophils at 40 uM relative to control. Format: functional, Neutrophil. To be noted: Mus musculus, Neutrophil.
A short description of data set [5]: Cytotoxicity against mouse neutrophils assessed as cell viability at 40 uM relative to control. Format: toxicity, cell-based, Neutrophil. The following applies: mouse neutrophils, read-out: Activity.
Data set [6] can be described thus: Induction of apoptosis in mouse neutrophils assessed as live cells at 20 uM incubated for 16 hrs by Annexin V-FITC/PI staining based flow cytometry analysis (reference value: 48.5%). Format: toxicity, cell-based, Neutrophil. The following applies: read-out: Activity. On the technique in general: In flow cytometry, cells or beads pass a laser one at a time.
For data set [7], the system named is Neutrophil. Nature of the data set: Induction of apoptosis in mouse neutrophils assessed as early apoptotic cells at 20 uM incubated for 16 hrs by Annexin V-FITC/PI staining based flow cytometry analysis (reference value: 25.9%). Format: toxicity, cell-based.
For data set [8], the system named is Neutrophil. Kind of data set: Induction of apoptosis in mouse neutrophils assessed as late apoptotic cells at 20 uM incubated for 16 hrs by Annexin V-FITC/PI staining based flow cytometry analysis (reference value: 24.1%). Format: toxicity, cell-based.
In data set [9] the test system is Neutrophil. Kind of data set: Induction of apoptosis in mouse neutrophils assessed as dead cells at 20 uM incubated for 16 hrs by Annexin V-FITC/PI staining based flow cytometry analysis (reference value: 1.58%). Format: toxicity, cell-based.
Data set [10] is described as follows: Induction of apoptosis in mouse neutrophils assessed as live cells at 40 uM incubated for 16 hrs by Annexin V-FITC/PI staining based flow cytometry analysis (reference value: 48.5%). Format: toxicity, cell-based, Neutrophil. The following applies: read-out: Activity.
Data set [11] has as its system Neutrophil. Nature of the data set: Induction of apoptosis in mouse neutrophils assessed as early apoptotic cells at 40 uM incubated for 16 hrs by Annexin V-FITC/PI staining based flow cytometry analysis (reference value: 25.9%). Format: toxicity, cell-based.
For data set [12], the system named is Neutrophil. Nature of the data set: Induction of apoptosis in mouse neutrophils assessed as late apoptotic cells at 40 uM incubated for 16 hrs by Annexin V-FITC/PI staining based flow cytometry analysis (reference value: 24.1%). Format: toxicity, cell-based.
Data set [13] relates to Neutrophil. Nature of the data set: Induction of apoptosis in mouse neutrophils assessed as dead cells at 40 uM incubated for 16 hrs by Annexin V-FITC/PI staining based flow cytometry analysis (reference value: 1.58%). Format: toxicity, cell-based.
Data set [14] is described as follows: Inhibition of fungal curdlan induced PD-L1 expression in mouse neutrophils assessed as reduction in PD-L1 positive Ly6G positive neutrophils incubated for 16 hrs by flow cytometry analysis. The following applies: Neutrophil. Format: functional, cell-based.
Data set [15] in a line: Cytotoxicity against mouse neutrophils assessed as reduction in cell viability incubated for 16 hrs by flow cytometry analysis. Format: toxicity, cell-based, Neutrophil.
A short description of data set [16]: Therapeutic index, ratio of IC50 for cytotoxicity against mouse neutrophils to IC50 for inhibition of fungal curdlan induced PD-L1 expression in mouse neutrophils. Format: toxicity. The following applies: read-out: Ratio IC50.
Data set [17] is described as follows: Permeability of compound in PBS/EtOH (70:30) buffer incubated for 12 hrs by PAMPA-BBB assay. Format: ADME. The following applies: read-out: permeability. A general note: The PAMPA barrier holds no transporters, so it reflects passive diffusion.
Data set [18] is described as follows: Half life in Sprague-Dawley rat. Format: ADME. The following applies: in vivo.
Data set [19] can be described thus: Oral bioavailability in Sprague-Dawley rat. Format: ADME, organism-based. The following applies: in vivo.
The nature of data set [20]: AUC (0 to infinity) in Sprague-Dawley rat at 20 mg/kg, iv. Format: ADME, organism-based. To be noted: in vivo.
Data set [21] concerns Candida albicans. Kind of data set: Induction of neutrophil-mediated antifungal immunity against Candida albicans SC5314 infected in mouse assessed as reduction in PD-L1 positive Ly6G positive neutrophils in bone marrow at 100 mg/kg, po administered once a day for 3 days by flow cytometry analysis. Format: functional, organism-based. To be noted: time 3.0 day.
Data set [22] relates to Candida albicans. Nature of the data set: Induction of neutrophil-mediated antifungal immunity against Candida albicans SC5314 infected in mouse assessed as reduction in PD-L1 positive Ly6G positive neutrophils in kidney at 100 mg/kg, po administered once a day for 3 days by flow cytometry analysis. Format: functional, organism-based. The following applies: time 3.0 day.

Data set [23] deals with Candida albicans. Kind of data set: Induction of neutrophil-mediated antifungal immunity against Candida albicans SC5314 infected in mouse assessed as inhibition of CXCL1 protein expression in bone marrow at 100 mg/kg, po administered once a day for 3 days by ELISA. Format: functional, organism-based. The following applies: time 3.0 day. (In general: An ELISA detects its analyte on a solid surface through an enzyme-linked reagent.)

Data set [24] deals with Candida albicans. Nature of the data set: Induction of neutrophil-mediated antifungal immunity against Candida albicans SC5314 infected in mouse assessed as inhibition of CXCL2 protein expression in bone marrow at 100 mg/kg, po administered once a day for 3 days by ELISA. The following applies: time 3.0 day. Format: functional, organism-based.
The subject of data set [25] is Candida albicans. Nature of the data set: Induction of neutrophil-mediated antifungal immunity against Candida albicans SC5314 infected in mouse assessed as reduction in accumulation of Ly6G positive neutrophils in bone marrow at 100 mg/kg, po administered once a day for 3 days. Format: functional, organism-based. The following applies: time 3.0 day.
For data set [26], the system named is Neutrophil. Nature of the data set: Induction of neutrophil-mediated antifungal immunity against Candida albicans SC5314 infected in mouse assessed as increase in neutrophil infiltration in kidney at 100 mg/kg, po administered once a day for 3 days. Format: functional, organism-based. To be noted: time 3.0 day.
Data set [27] relates to Candida albicans. Nature of the data set: Induction of neutrophil-mediated antifungal immunity against Candida albicans SC5314 infected in mouse assessed as reduction in fungal burden in kidneys at 100 mg/kg, po administered once a day for 3 days. Format: functional, organism-based. The following applies: time 3.0 day.
Data set [28] deals with Candida albicans. Nature of the data set: Induction of neutrophil-mediated antifungal immunity against Candida albicans SC5314 infected in mouse assessed as increase in animal survival rate at 100 mg/kg, po administered once a day for 3 days. Format: functional, organism-based. To be noted: time 3.0 day.
Data set [29] concerns Candida albicans. Kind of data set: Induction of neutrophil-mediated antifungal immunity against Candida albicans SC5314 infected in mouse assessed as reduction in fungal clusters in kidney at 100 mg/kg, po administered once a day for 3 days by PAS staining based analysis. Format: functional, organism-based. The following applies: time 3.0 day.
Data set [30] relates to Candida albicans. Nature of the data set: Antifungal activity against Candida albicans SC5314 assessed as inhibition of fungal growth at 0.25 to 128 ug/ml measured every 3 hrs for 24 hrs by absorbance based analysis. Format: functional, organism-based. The following applies: dose 0.25-128 µg/ml.
In data set [31] the test system is Candida albicans. Nature of the data set: Induction of neutrophil-mediated antifungal immunity against Candida albicans SC5314 infected in cyclophosphamide-induced immunosuppressed C57BL/6 mouse at 100 mg/kg, po pretreated with CTX for 3 days followed by fungal infection and further administered with compound once a day for 3 days. The following applies: time 3.0 day. Format: functional, organism-based.

For data set [32], the target named is Signal transducer and activator of transcription 3 (Mus musculus) (UniProt P42227). Nature of the data set: Inhibition of biotinylated ACT001 probe binding to STAT3 in mouse bone marrow neutrophils at 100 uM by pulldown based Western blot analysis. Format: cell-based. To be noted: Neutrophil.
Signal transducer and activator of transcription 3 (Mus musculus), sequence (P42227 whole entry): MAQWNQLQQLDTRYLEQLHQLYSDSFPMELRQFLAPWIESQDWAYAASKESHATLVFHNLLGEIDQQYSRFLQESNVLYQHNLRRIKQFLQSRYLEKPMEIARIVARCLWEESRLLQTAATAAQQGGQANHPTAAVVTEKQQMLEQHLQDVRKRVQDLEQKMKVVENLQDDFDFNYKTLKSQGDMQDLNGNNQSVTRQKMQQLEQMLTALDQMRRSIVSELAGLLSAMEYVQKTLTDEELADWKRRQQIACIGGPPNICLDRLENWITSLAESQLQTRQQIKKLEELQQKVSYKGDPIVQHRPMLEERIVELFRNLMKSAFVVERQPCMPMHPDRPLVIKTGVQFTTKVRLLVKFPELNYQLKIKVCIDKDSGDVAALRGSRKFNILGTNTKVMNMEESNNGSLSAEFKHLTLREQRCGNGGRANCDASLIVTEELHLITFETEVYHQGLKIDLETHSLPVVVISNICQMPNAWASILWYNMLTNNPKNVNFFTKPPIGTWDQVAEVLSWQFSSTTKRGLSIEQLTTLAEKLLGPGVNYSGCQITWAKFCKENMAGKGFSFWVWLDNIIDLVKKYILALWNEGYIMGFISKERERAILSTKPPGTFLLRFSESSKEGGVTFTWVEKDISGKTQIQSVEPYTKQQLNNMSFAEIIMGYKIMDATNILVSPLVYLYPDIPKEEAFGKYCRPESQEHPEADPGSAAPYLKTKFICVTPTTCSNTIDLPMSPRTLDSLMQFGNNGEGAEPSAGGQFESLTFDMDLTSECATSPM

Signal transducer and activator of transcription 3, sequence (P40763 whole entry): as the sequence (P42227 whole entry) above, with D760E counted along it

Consider `C=C1C(=O)O[C@H]2[C@H]1CC[C@]1(C)O[C@@]13CC[C@@](C)(O)[C@H]23`, for which, in data set [1], the inhibition result is “Active”. Also, the Activity result in data set [2] was “Non-Toxic”; in [3], 265 Da.

Regarding `CC1=C2CC[C@@](C)(O)[C@@H]2[C@H]2OC(=O)[C@@H](CN(C)C)[C@@H]2CC1` [ACT-001], at 40 µM the inhibition in data set [4] was 72.8%. Also, the viability at 40 µM in data set [5] turned out to be 27.6%. The viability at 16 h, 20 µM in [6] was 37.1%. Also, the Activity with Neutrophil [7] stood at 35.1%; in the data set on Neutrophil [8] it was 25.2%; in the data set on Neutrophil [9], 2.62%; in the data set with Neutrophil [11], 39.2%; in the data set with Neutrophil [12], 29.9%; in the data set on Neutrophil [13] it was 4.28%. Besides, the viability at 16 h, 40 µM in data set [10] was 26.6%. Further, in [14], the IC50 was determined as 16.8 µM. Moreover, the IC50 at 16 h in data set [15] was 29.3 µM. In addition, the selectivity ratio in data set [16] stood at 1.7. Moreover, the Papp at 12 h in [17] came to 4.7 ×10⁻⁶ cm/s. In addition, the half-life in data set [18] was 1.12 h. The compound further came in with a bioavailability in data set [19] of 50.8%. This compound showed an AUC(0-inf) in [20] of 5540 ng·h/mL. The result in the data set with Candida albicans [21], in the data set with Candida albicans [22], in the data set on Candida albicans [23], with Candida albicans [24], in the data set on Candida albicans [25] and in the data set on Neutrophil [26] was Active. For the same compound, the outcome with Candida albicans [27], with Candida albicans [28] and in the data set on Candida albicans [29] was Active. Besides, the result in the data set with Candida albicans [30] and with Candida albicans [31] was inactive. In addition, the inhibition result in data set [32] is “Active”.

Broadly, the inhibition is the relative decrease from the control value, in per cent. In general, IC50 refers to the point on the concentration scale where inhibition reaches its midpoint. One may read the half-life as how long it takes for the measured level to halve. Lower therefore signals fast loss. In general, bioavailability refers to the share of a dose that reaches the circulation, judged against a reference dose that is usually intravenous. A word on the AUC(0-inf): it is total exposure, with the tail of the curve extrapolated.
